Reference: patent US20230075765A1, “PYRROLO[2,3-D]PYRIMIDINE DERIVATIVE TARGETING EGFR MUTATION, AS WELL AS THE PREPARATIVE METHOD AND THE USE THEREOF” (WEST CHINA HOSPITAL, SICHUAN UNIVERSITY, priority 2020, published 2023)
Like-named read-outs stand apart in the source and are kept apart here.

Columns and labels:
EGFR (T790M L858R) = molecular target: T1, EGFR (T790M L858R) (Homo sapiens, UniProt P00533, L858R/T790M); test: Kinase inhibition, mobility shift assay; type: biochemical; details: for Single-concentration inhibitory activity against EGFR T790M L858R, Mean (100% inhibition): compound concentration 2 nM; for IC50: EGFR L858R/T790M double mutation, read-out: Inhibitory activity (IC50) on EGFR (T790M L858R); for inhibitory activity against EGFR L858R/T790M higher than against wild-type EGFR: ratio of IC50 values wild-type EGFR / EGFR L858R/T790M
T1 construct: purchased Invitrogen PR8911A
T1 sequence (P00533 25-1210 T790M/L858R): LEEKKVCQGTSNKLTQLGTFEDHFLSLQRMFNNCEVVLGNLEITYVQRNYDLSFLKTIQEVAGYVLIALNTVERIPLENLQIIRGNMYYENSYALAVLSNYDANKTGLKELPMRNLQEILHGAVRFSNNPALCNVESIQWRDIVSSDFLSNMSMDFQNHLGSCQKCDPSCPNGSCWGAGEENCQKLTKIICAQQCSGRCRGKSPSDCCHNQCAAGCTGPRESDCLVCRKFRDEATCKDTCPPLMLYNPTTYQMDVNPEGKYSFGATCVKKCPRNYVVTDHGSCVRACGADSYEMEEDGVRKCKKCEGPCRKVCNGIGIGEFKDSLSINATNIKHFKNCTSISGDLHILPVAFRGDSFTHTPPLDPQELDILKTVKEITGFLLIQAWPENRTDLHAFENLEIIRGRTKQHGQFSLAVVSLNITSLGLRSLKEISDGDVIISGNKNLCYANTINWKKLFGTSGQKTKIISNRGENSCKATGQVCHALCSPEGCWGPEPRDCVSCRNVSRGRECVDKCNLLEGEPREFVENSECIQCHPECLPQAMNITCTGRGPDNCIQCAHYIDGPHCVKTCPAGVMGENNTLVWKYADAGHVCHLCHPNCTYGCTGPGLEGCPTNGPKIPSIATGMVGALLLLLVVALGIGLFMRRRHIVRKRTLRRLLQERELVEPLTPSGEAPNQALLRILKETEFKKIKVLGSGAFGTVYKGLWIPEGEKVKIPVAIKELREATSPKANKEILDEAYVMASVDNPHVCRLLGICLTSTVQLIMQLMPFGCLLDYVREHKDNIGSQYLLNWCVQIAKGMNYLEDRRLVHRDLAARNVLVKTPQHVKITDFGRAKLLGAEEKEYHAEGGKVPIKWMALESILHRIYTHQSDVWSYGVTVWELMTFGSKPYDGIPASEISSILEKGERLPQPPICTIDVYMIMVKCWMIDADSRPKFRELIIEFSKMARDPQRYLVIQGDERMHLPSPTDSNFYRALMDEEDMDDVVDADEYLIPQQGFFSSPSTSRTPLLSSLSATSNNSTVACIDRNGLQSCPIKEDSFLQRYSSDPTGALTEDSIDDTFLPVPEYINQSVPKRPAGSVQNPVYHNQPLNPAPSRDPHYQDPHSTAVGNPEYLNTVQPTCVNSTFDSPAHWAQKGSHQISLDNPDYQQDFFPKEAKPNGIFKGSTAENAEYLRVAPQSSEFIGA
Procedure: (§1) According to relevant literature, the inhibitory activity of five kinases (EGFR, EGFR-LT, EGFR-LTC, BTK, JAK3) were tested. Note: EGFR, EGFR-LT, EGFR-LTC: wild-type EGFR, L858R/T790M (EGFR-LT), or L858R/T790M/C797S (EGFR-LTC) mutant protein.
(§2) 95 μl of 100% DMSO was added to the first well of a 96-well plate, and then 5 μl of 10 mM compound solution was added to prepare a 500 μM compound solution.
(§3) 10 μl solution was taken out from the 50-fold concentration of compound solution (prepared and tested), and transferred to a 96-well plate, to which was added 90 μl kinase buffer to prepare a 5-fold concentration of compound solution.
(§4) 5 μl solution was taken out from the 5-fold concentration of compound solution in a 96-well plate, and transferred to a 384-well reaction plate. For example, the solution was transferred from well A1 of a 96-well plate to wells A1 and A2 of a 384-well plate, from well A2 of a 96-well plate to wells A3 and A4 of a 384-well plate, and so on.
(§5) 1) The kinase was added to 1× kinase buffer to form 2.5× kinase solution;
(§6) 2) 10 μl of the above 2.5× kinase solution was transferred to a 384-well reaction plate, and 1× kinase buffer was added to the negative control well, then incubated for 10 min at room temperature;
(§7) 3) FAM-labeled polypeptide and ATP were added to 1× kinase buffer to form a 2.5×substrate solution;
(§8) 5) The 384-well reaction plate was incubated at 28° C. for 60 min, to which was added 30 μl of stop solution to stop the reaction, and the model of biochemical incubator was SPX-100B-Z.
(§9) The conversion rate was read on CaliperEZ Reader.
(§10) 1) The conversion rate data were copied from CaliperEZ Reader II;
(§11) 2) The conversion rate was converted into the inhibition rate;
(§12) Percent inhibition=(max−conversion)/(max−min)*100
(§13) “min” is the reading of the control well without enzyme; “max” is the reading of DMSO control well.
(§14) 3) IC50 values were fitted by using XLFit excel add-in version 5.4.0.8.
(§15) Fitting formula: Y=Bottom+(Top−Bottom)/(1+(IC50/X)^HillSlope)

JAK3 = molecular target: T2, JAK3 (Homo sapiens, UniProt P52333); test: Kinase inhibition, mobility shift assay; type: biochemical; details: for Single-concentration inhibitory activity on JAK3, Mean (100% inhibition): compound concentration 1 nM; for IC50: read-out: Inhibitory activity (IC50) on JAK3
T2 construct: purchased Carna 08-046
T2 sequence (P52333 1-1124): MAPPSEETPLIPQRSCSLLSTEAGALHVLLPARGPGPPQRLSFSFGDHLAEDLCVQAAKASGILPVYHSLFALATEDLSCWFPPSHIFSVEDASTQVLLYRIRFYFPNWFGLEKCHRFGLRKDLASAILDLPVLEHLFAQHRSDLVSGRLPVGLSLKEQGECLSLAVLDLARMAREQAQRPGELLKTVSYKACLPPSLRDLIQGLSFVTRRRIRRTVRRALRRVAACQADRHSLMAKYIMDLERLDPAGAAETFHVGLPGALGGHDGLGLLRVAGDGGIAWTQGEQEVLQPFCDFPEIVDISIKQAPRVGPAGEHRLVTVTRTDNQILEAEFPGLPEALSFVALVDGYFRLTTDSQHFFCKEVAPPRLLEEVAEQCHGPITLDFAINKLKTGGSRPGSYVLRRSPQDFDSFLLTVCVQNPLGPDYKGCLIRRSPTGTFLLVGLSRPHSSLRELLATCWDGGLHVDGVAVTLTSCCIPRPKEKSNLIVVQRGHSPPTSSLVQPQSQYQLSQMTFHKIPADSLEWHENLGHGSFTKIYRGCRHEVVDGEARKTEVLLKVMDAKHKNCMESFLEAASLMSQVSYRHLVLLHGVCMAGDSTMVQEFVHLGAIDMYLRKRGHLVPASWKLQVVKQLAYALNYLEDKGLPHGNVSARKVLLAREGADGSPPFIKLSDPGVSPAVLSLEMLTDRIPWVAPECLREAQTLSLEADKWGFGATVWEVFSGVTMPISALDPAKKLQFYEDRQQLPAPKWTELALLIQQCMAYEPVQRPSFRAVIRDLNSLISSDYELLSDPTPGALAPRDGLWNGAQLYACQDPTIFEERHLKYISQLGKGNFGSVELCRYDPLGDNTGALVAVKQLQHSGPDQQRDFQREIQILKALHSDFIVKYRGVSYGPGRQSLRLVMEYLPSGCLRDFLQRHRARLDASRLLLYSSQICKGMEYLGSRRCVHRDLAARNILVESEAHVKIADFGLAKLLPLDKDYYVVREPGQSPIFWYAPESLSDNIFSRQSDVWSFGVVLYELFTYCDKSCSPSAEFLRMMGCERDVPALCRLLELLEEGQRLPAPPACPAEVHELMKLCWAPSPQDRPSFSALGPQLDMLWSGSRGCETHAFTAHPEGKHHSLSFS
Procedure: as §1, §2, §3, §4, §5, §6, §7, §8, §9, §10, §11, §12, §13, §14, §15

HCC827 cells = test: Inhibition of cell proliferation, CCK8 method; type: cell-based, human; details: for IC50: HCC827 EGFR mutant cells, 48 h, CCK8, read-out: Inhibitory activity (IC50) against HCC827; for selectivity for HCC827 cells (in words): EGFR mutant HCC827 cells versus other cell lines
Procedure: (§16) The stock solution was diluted with the corresponding culture medium to the required concentration just before the experiment.
(§17) HBE cells and BEAS-2B cells are normal lung bronchial epithelial cell lines, and both cells were cultured in DMEM high glucose medium (supplemented with 10% fetal bovine serum and 1% double antibody) to the logarithmic growth phase; H460 cells, A549 cells, H1975 cells and HCC827 cells are lung cancer cell lines, and all of them were cultured in RPMI1640 medium (supplemented with 10% fetal bovine serum and 1% double antibody) to the logarithmic growth phase. Among them, H1975 cells and HCC827 cells are EGFR mutant cells.
(§18) The cells were counted, and then seeded in a 96-well plate at a density of 5000 cells/well, 100 μl for each well. The culture plate was moved into a CO2 incubator and incubated for 24 h at 37° C. and 5% CO2. Compounds at different concentrations were added to each well, 5 replicate wells for each concentration, and the cells were treated with the compounds for 48 hours. CCK8 detection reagent was added to each well according to the operation manual, and then the plate was further incubated for 1 h before terminating the culture. 450 nm wavelength was chosen, and the absorbance value of each well was adjusted on the microplate ELISA analyzer. The result was recorded. […] was taken as the horizontal axis, and absorbance as the vertical axis to plot a curve. The half inhibitory concentration (IC50) was calculated by Bliss method. Each experiment was repeated at least 3 times.
(§19) Normal lung cell lines and different lung cancer cell lines were selected for experiments.

H1975 cells = test: Inhibition of cell proliferation, CCK8 method; type: cell-based, human; details: 48 h, read-out: Inhibitory activity (IC50) against H1975
Procedure: as §16, §17, §18, §19

HBE cells = test: Inhibition of cell proliferation, CCK8 method; type: cell-based, human; details: for IC50: HBE normal bronchial epithelial cells, 48 h, CCK8, read-out: Inhibitory activity (IC50) against HBE
Procedure: as §16, §17, §18, §19

[1] = Homo sapiens, NCI-H1975, H1975 EGFR mutant cells

| Structure (SMILES) | Single-concentration inhibitory activity against EGFR T790M L858R, Mean (100% inhibition) (EGFR (T790M L858R)) [% inhibition] | Single-concentration inhibitory activity on JAK3, Mean (100% inhibition) (JAK3) [% inhibition] | inhibitory activity on HCC827 cells (in words) (HCC827 cells; CCK8, 48 h) | IC50 (HCC827 cells; Homo sapiens) [µM] | IC50 (H1975 cells; [1]) [µM] | IC50 (HBE cells; Homo sapiens) [µM] | IC50 (EGFR (T790M L858R)) [µM] | inhibitory activity against EGFR L858R/T790M higher than against wild-type EGFR (EGFR (T790M L858R)) [fold] | IC50 (JAK3) [µM] | selectivity for HCC827 cells (in words) (HCC827 cells) | IC50 (HCC827 cells) [µM] | IC50 (H1975 cells; H1975 EGFR mutant cells) [µM] | IC50 (HBE cells) [µM] | selectivity coefficient (HCC827 cells; IC50 values against HBE cells compared with HCC827 cells) | toxicity to normal epithelial cells HBE cells (in words) (HBE cells; compared with positive control commercially available Avtinib) |
| --- | --- | --- | --- | --- | --- | --- | --- | --- | --- | --- | --- | --- | --- | --- | --- |
| C=CC(=O)Nc1cccc(Oc2nc(Nc3ccc(N4CCN(C)CC4)c(N)c3)nc3c2ccn3COC(=O)C(C)(C)C)c1 [Compound 8] | 2.4 | −7.6 | certain inhibitory effect | 0.33 | 42 | 9.58 | – | – | – | – | – | – | – | – | – |
| C=CC(=O)Nc1cccc(Oc2nc(Nc3ccc(N4CCN(C)CC4)c([N+](=O)[O-])c3)nc3[nH]ccc23)c1 [Compound 5] | 49 | 23 | – | 0.1 | 3.1 | 7.54 | 0.0027 | 54 | 0.0022 | – | – | – | – | – | – |
| C=CC(=O)Nc1cccc(Oc2nc(Nc3ccc(N4CCN(C)CC4)c(OC)c3)nc3[nH]ccc23)c1 [Compound 4] | 42 | 26 | – | 0.26 | 22.4 | 12.5 | 0.0031 | 70 | 0.0023 | high targeting selectivity | – | – | – | – | – |
| C=CC(=O)Nc1cccc(Oc2nc(Nc3ccc(N4CCN(C)CC4)c(Cl)c3)nc3[nH]ccc23)c1 [Compound 2] | 92 | 77 | – | – | – | – | – | – | – | – | 0.12 | 1.67 | 8.73 | – | – |
| C=CC(=O)Nc1cccc(Oc2nc(Nc3ccc(N4CCN(C)CC4)c(I)c3)nc3c2ccn3COC(=O)C(C)(C)C)c1 [Compound 9] | 0.1 | −4.0 | – | 51.7 | 52.3 | 7.5 | – | – | – | – | – | – | – | – | – |
| C=CC(=O)Nc1cccc(Oc2nc(Nc3ccc(N4CCN(C)CC4)c(N)c3)nc3[nH]ccc23)c1 [Compound 6] | 36 | 29 | – | 0.046 | 3.84 | 22.7 | 0.0034 | 18 | 0.0022 | high targeting selectivity | – | – | – | exceeds 490 times | less toxic |
| C=CC(=O)Nc1cccc(Oc2nc(Nc3ccc(N4CCN(C)CC4)c([N+](=O)[O-])c3)nc3c2ccn3COC(=O)C(C)(C)C)c1 [Compound 7] | 3.5 | −1.4 | – | 0.44 | 4.12 | 3.61 | – | – | – | – | – | – | – | – | – |
